# Laboratory results as given in patent US4229436A, “Antibiotic G-6302” (Takeda Chemical Industries, Ltd., priority 1977, dated 1980).
# Experiments:
# Solubility in solvents = assay type: physicochemical
# [1] = Stability in aqueous solution; assay type: physicochemical
# [2] = Basicity, neutrality or acidity; assay type: physicochemical
# [3] = tested on: Salmonella typhosa Boxhill 58; assay: Antimicrobial spectrum, agar plate dilution method; assay type: cell-based; details: Salmonella enterica, read-out: Minimal inhibitory concentration
# Text: (§1) The biological characteristics of G-6302 are as follows. The antimicrobial spectra of G-6302 and its sodium salt against various microorganisms are shown in Table 3 (agar plate dilution method.)
# (§2) Medium = Trypticasesoy-broth-agar
# [4] = Acute toxicity in mice, intravenous
# [5] = mouse, in vivo
# Escherichia coli = assay: Protection of mice infected with Escherichia coli; assay type: in vivo
# [6] = tested on: Aspergillus niger IFO 4066; assay: Antimicrobial spectrum, agar plate dilution method; assay type: cell-based; details: IFO4066, Nutrient agar containing 1% of glucose, read-out: Minimal inhibitory concentration
# Text: as §1
# (§3) *Medium = Nutrient agar containing 1% of glucose
# [7] = tested on: Candida albicans IFO 0583; assay: Antimicrobial spectrum, agar plate dilution method; assay type: cell-based; details: IFO0583, Nutrient agar containing 1% of glucose, read-out: Minimal inhibitory concentration
# Text: as §1, §3
# [8] = tested on: Saccharomyces cerevisiae IFO 0209; assay: Antimicrobial spectrum, agar plate dilution method; assay type: cell-based; details: IFO0209, Nutrient agar containing 1% of glucose, read-out: Minimal inhibitory concentration
# Text: as §1, §3
# [9] = tested on: Penicillium chrysogenum IFO 4626; assay: Antimicrobial spectrum, agar plate dilution method; assay type: cell-based; details: IFO4626, Nutrient agar containing 1% of glucose, read-out: Minimal inhibitory concentration
# Text: as §1, §3
# Klebsiella pneumoniae = assay: Protection of mice infected with Klebsiella pneumoniae; assay type: in vivo
# Escherichia coli T-7 = assay: Antimicrobial spectrum, agar plate dilution method; assay type: cell-based; details: T7, Trypticasesoy-broth-agar, read-out: Minimal inhibitory concentration
# Text: as §1, §2
# [10] = tested on: Staphylococcus aureus FDA 209P; assay: Antimicrobial spectrum, agar plate dilution method; assay type: cell-based; details: FDA209P, Trypticasesoy-broth-agar, read-out: Minimal inhibitory concentration
# Text: as §1, §2
# [11] = tested on: Proteus vulgaris IFO 3988; assay: Antimicrobial spectrum, agar plate dilution method; assay type: cell-based; details: IFO3988, Trypticasesoy-broth-agar, read-out: Minimal inhibitory concentration
# Text: as §1, §2
# Shigella flexneri EW-10 = assay: Antimicrobial spectrum, agar plate dilution method; assay type: cell-based; details: EW10, Trypticasesoy-broth-agar, read-out: Minimal inhibitory concentration
# Text: as §1, §2
# [12] = tested on: Bacillus subtilis PCI 219; assay: Antimicrobial spectrum, agar plate dilution method; assay type: cell-based; details: PCI219, Trypticasesoy-broth-agar, read-out: Minimal inhibitory concentration
# Text: as §1, §2
# [13] = tested on: Pseudomonas aeruginosa U-31; assay: Antimicrobial spectrum, agar plate dilution method; assay type: cell-based; details: U31, Trypticasesoy-broth-agar, read-out: Minimal inhibitory concentration
# Text: as §1, §2
# Escherichia coli NIHJ = assay: Antimicrobial spectrum, agar plate dilution method; assay type: cell-based; details: Trypticasesoy-broth-agar, read-out: Minimal inhibitory concentration
# Text: as §1, §2
# [14] = tested on: Streptococcus pyogenes E-14; assay: Antimicrobial spectrum, agar plate dilution method; assay type: cell-based; details: E14, Trypticasesoy-broth-agar, read-out: Minimal inhibitory concentration
# Text: as §1, §2
# [15] = tested on: Corynebacterium diphtheriae Toronto; assay: Antimicrobial spectrum, agar plate dilution method; assay type: cell-based; details: Trypticasesoy-broth-agar, read-out: Minimal inhibitory concentration
# Text: as §1, §2
# [16] = tested on: Proteus mirabilis IFO 3849; assay: Antimicrobial spectrum, agar plate dilution method; assay type: cell-based; details: IFO3849, Trypticasesoy-broth-agar, read-out: Minimal inhibitory concentration
# Text: as §1, §2
# Klebsiella pneumoniae DT = assay: Antimicrobial spectrum, agar plate dilution method; assay type: cell-based; details: Trypticasesoy-broth-agar, read-out: Minimal inhibitory concentration
# Text: as §1, §2
# [17] = tested on: Serratia marcescens IFO 12648; assay: Antimicrobial spectrum, agar plate dilution method; assay type: cell-based; details: IFO12648, Trypticasesoy-broth-agar, read-out: Minimal inhibitory concentration
# Text: as §1, §2
# [18] = tested on: Proteus morganii IFO 3168; assay: Antimicrobial spectrum, agar plate dilution method; assay type: cell-based; details: Morganella morganii, IFO3168, Trypticasesoy-broth-agar, read-out: Minimal inhibitory concentration
# Text: as §1, §2
# gram-positive bacteria = assay: Antimicrobial spectrum, summary in words; assay type: cell-based; details: summary of Table 3
# Text: as §1
# gram-negative bacteria = assay: Antimicrobial spectrum, summary in words; assay type: cell-based; details: summary of Table 3
# Text: as §1
# [19] = listed as sodium salt of G-6302
smiles,measurement,setting,value
COC1(NC(=O)C(C)NC(=O)CCC(N)C(=O)O)CN(S(=O)(=O)O)C1=O (stereo not drawn) [crystals of G-6302],solubility in solvents (compared with product of Example 1),Solubility in solvents; crystals of Example 5,the same as those of the product obtained in Example 1
same,stability (compared with product of Example 1),[1]; crystals of Example 5,the same as those of the product obtained in Example 1
same,"basicity, neutrality or acidity (compared with product of Example 1)",[2]; crystals of Example 5,the same as those of the product obtained in Example 1
COC1(NC(=O)C(C)NC(=O)CCC(N)C(=O)O)CN(S(=O)(=O)O)C1=O (stereo not drawn) [G-6302 . Na],Solubility in acetone,Solubility in solvents; [19],Insoluble
same,Solubility in methanol,Solubility in solvents; [19],sparingly soluble
same,MIC,[3],12.5 mg/L
same,acute toxicity,[4],low
same,deaths,[5],no deaths
COC1(NC(=O)C(C)NC(=O)CCC(N)C(=O)O)CN(S(=O)(=O)O)C1=O (stereo not drawn) [Antibiotic G-6302],Solubility in acetone,Solubility in solvents,sparingly soluble
same,Solubility in benzene,Solubility in solvents; benzene,Insoluble
same,Solubility in chloroform,Solubility in solvents; chloroform,Insoluble
same,Solubility in diethyl ether,Solubility in solvents; diethyl ether,Insoluble
same,Solubility in dimethylsulfoxide,Solubility in solvents; dimethylsulfoxide,soluble
same,Solubility in ethanol,Solubility in solvents; ethanol,sparingly soluble
same,Solubility in ethyl acetate,Solubility in solvents; ethyl acetate,Insoluble
same,Solubility in hexane,Solubility in solvents; hexane,Insoluble
same,Solubility in methanol,Solubility in solvents,soluble
same,Solubility in petroleum ether,Solubility in solvents; petroleum ether,Insoluble
same,Solubility in pyridine,Solubility in solvents; pyridine,sparingly soluble
same,Solubility in water,Solubility in solvents; water,readily soluble
same,protecting action on infected mice,Escherichia coli; oral dose of 100 mg/kg,protecting action
same,protecting action on infected mice,Escherichia coli; subcutaneous dose of 10 mg/kg,protecting action
same,Stability over pH 8.5,[1]; over pH 8.5,unstable
same,Stability in aqueous solution,"[1]; pH 3-pH 7, 60° C., 10 minutes",Stable
same,"Basicity, neutrality or acidity",[2],Acid
same,MIC,[6],> 100 mg/L
same,MIC,[7],> 100 mg/L
same,MIC,[8],> 100 mg/L
same,MIC,[9],> 100 mg/L
same,protecting action on infected mice,Klebsiella pneumoniae; oral dose of 100 mg/kg,protecting action
same,protecting action on infected mice,Klebsiella pneumoniae; subcutaneous dose of 10 mg/kg,protecting action
same,MIC,Escherichia coli T-7,25 mg/L
same,MIC,[10],> 100 mg/L
same,MIC,[11],100 mg/L
same,MIC,Shigella flexneri EW-10,25 mg/L
same,MIC,[12],100 mg/L
same,MIC,[13],> 100 mg/L
same,MIC,Escherichia coli NIHJ,25 mg/L
same,MIC,[14],> 100 mg/L
same,MIC,[15],12.5 mg/L
same,MIC,[16],25 mg/L
same,MIC,Klebsiella pneumoniae DT,12.5 mg/L
same,MIC,[17],100 mg/L
same,MIC,[18],100 mg/L
same,antimicrobial activity against gram-positive bacteria,gram-positive bacteria,inhibitory
same,antimicrobial activity against gram-positive bacteria,gram-positive bacteria; listed as Antibiotic G-6302,also active against some gram-positive bacteria
same,antimicrobial activity against gram-negative bacteria,gram-negative bacteria,inhibitory
same,antimicrobial activity against gram-negative bacteria,gram-negative bacteria; listed as Antibiotic G-6302,mainly active against gram-negative bacteria
